Results published in publication PMC10625055, “A novel Bruton's tyrosine kinase inhibitor JDB175 shows potent efficacy to suppress central nervous system lymphoma” (MedComm, 2023).

Molecular target: Bruton's tyrosine kinase (BTK) (Homo sapiens, UniProt Q06187)
Experiment: radiometric kinase assay, recombinant human kinase
Assay type: biochemical

Chain of Bruton's tyrosine kinase (BTK) (Q06187 2-659): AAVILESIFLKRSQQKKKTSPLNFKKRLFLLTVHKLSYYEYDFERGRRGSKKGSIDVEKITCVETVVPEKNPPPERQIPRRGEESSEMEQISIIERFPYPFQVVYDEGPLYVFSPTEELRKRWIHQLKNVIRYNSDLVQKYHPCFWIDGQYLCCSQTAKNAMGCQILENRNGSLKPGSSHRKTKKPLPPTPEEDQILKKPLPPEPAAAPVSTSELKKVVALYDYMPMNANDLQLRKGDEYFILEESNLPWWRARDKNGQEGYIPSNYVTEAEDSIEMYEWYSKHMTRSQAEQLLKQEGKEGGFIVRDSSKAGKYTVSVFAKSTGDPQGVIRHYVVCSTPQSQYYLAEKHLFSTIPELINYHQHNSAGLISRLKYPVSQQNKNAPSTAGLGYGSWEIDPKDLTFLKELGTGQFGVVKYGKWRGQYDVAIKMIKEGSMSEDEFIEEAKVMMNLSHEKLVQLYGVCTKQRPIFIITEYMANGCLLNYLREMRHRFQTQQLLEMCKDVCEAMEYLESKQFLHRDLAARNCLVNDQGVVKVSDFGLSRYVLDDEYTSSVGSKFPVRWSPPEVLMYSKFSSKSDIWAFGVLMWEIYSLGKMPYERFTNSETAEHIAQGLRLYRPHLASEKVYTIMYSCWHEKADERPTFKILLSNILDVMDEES

C=CC(=O)N1CCC[C@@H](c2nn(-c3ccc(Oc4cccc(F)c4F)cc3)c3cncc(F)c23)C1 [JDB175]
IC50: 2.1 nM
